The values below come from US7074807B2, “Compositions and methods for inducing cell death” (Georgetown University, priority 1998, dated 2006).

One data set concerns SAPK/JNK. Kind of data set: SAPK/JNK1 activity (GST-cJun phosphorylation). The data set is classed as cell-based, human. As to conditions: 10 mM, 2 h, vs tempol or 1% ethanol control. As to the method: FIGS. 5A, 5B, 5C. Tempo stimulates tyrosine phosphorylation and activity of SAPK. […] 5A. WCLs (1 mg) were immunoprecipitated with agarose-conjugated anti-SAPK antibody, followed by immunoblotting with anti-PY MAb. 5B. In other independent experiments, anti-SAPK immunoprecipitates were first probed with anti-PY MAb (top), and the blot was then reprobed with anti-SAPK antibody (bottom). 5C. […] WCLs were immunoprecipitated with anti-JNK1 antibody, and the JNK1 activity in immunoprecipitates was measured using GST-cJun (˜41 kDa) as a substrate. UT, untreated cells grown overnight in serum-free medium; CONT/Control, cells grown in serum-free medium overnight, and treated with 1% ethanol for 2 h.
ERK and SAPK/JNK Activities—Whole cell lysates prepared as described above were immunoprecipitated (1 mg) with an agarose conjugated anti-ERK1 antibody or an agarose conjugated anti-JNK1 antibody for 2 h at 4° C. with constant agitation. The immune-complexes were washed 3 times in lysis buffer and once in KBB as mentioned earlier. ERK or JNK activity assay was carried out according to manufacturer's procedures (UBI). […] The radioactive filters were washed and counted as described above. […] The radiolabeled GST-cJun fusion protein was detected by autoradiography.

The test system of a further data set is caspase-3 in PC3 cells. The experiment in a line: Caspase-3 activity assay (DEVD-AFC). Format: cell-based, human. The settings on record: 2.5 mM, 24 hr. How it is done:
(§1) FIG. 10 illustrates the effect of tempo on caspase-3 activity in prostate cancer cell lines. Cells were treated with 2.5 mM tempo for indicated times in duplicate or triplicate as described in legend to FIG. 2. Representative data from one experiment are shown. Experiments was repeated 2–3 times.
(§2) ApoAlert CPP32 activity/caspase-3 assay kit was used to measure caspase-3 activity in cells according to manufacturer's instructions (Clontech). Briefly, after tempo treatment, cells were washed 3 times with ice-cold PBS and lysed in Clontech cell lysis buffer for 10 min on ice followed by microcentrifugation at 15,000× g for 5 min. Whole cell lysate (50 ug) was incubated for 1 h at 37° C. in caspase-3 reaction mixture containing 10 mM DTT in 2× reaction buffer, 50 uM CPP32 substrate, DEVD-AFC. The amounts of 7-amino-4 trifluoromethyl coumarin (AFC) released were detected by spectrofluorometer (Hitachi F4500) with excitation at 400 nm and emission at 505 nm.

The test system of another data set is caspase-3 in DU145 cells. The experiment in a line: Caspase-3 activity assay (DEVD-AFC). The data set is classed as cell-based, human. As to conditions: 2.5 mM, 2 hr. How it is done: as §1, §2
The test system of a further data set is caspase-3 in LNCaP cells. The experiment in a line: Caspase-3 activity assay (DEVD-AFC). Format: cell-based, human. The settings on record: 2.5 mM, 24 hr. As to the method: as §1, §2
The subject of data set [1] is bovine aortic endothelial cells. The experiment in a line: Apoptotic cell death by bisbenzamide trihydrochloride/Hoechst-33258 staining. Format: cell-based. The settings on record: 5 mM.

As to `CC1(C)CCCC(C)(C)N1[O]` [tempo, 2,2,6,6-tetramethylpiperidine-N-oxyl], the “increase in the phosphorylated GST-cJun fusion protein” value with SAPK/JNK is listed as 3–7 fold. In addition, the “level of caspase-3 activity” value was roughly 200% in the data set on caspase-3 in PC3 cells and roughly 170% in the data set with caspase-3 in DU145 cells. Moreover, the “increase in caspase activity” value in the data set with caspase-3 in LNCaP cells is given as roughly 12 fold. Moreover, the intratumoral tolerance result in “Tolerated dose in mice” was “over 200 mg/kg”. In addition, the apoptotic cell death in data set [1] (4 h) was found to be 3.97±0.33%; in data set [1] (8 h), 38.85±1.69%.
